ChEMBL document CHEMBL3228010, “Potential antitumor agents. 29. Quantitative structure-activity relationships for the antileukemic bisquaternary ammonium heterocycles” (J Med Chem, 1979)

Assays:
[1] = system: Mus musculus; assay: Toxicity in ip dosed C3H X DBA2 F1 hybrid mouse […] with mouse L1210 cells on day 0 and dosed once daily on days 1 to 5 measured after 50 days; format: organism-based; details: in vivo, 1200 h
[2] = Lipophilic-hydrophilic balance, Rm of the compound by partition chromatography; format: physicochemical
[3] = system: L1210; assay: Antitumor activity against mouse L1210 cells […] in ip dosed C3H X DBA2 F1 hybrid mouse on day 0 and dosed once daily on days 1 to 5 assessed as increase in life span relative to control; format: functional
[4] = system: L1210; assay: Antitumor activity against mouse L1210 cells […] in ip dosed C3H X DBA2 F1 hybrid mouse on day 0 and dosed at LD10 level once daily on days 1 to 5 assessed as increase in life span relative to control; format: functional

Row | SMILES | LD10 [1] [mg/kg] | Rm [2] | D40 [3] [mg/kg] | log(ILSmax) [4]
1 | CCC[n+]1cccc2cc(NC(=O)c3ccc(-c4ccc(-c5ccc(-c6ccc(C(=O)Nc7ccc8c(ccc[n+]8CCC)c7)cc6)cc5)cc4)cc3)ccc21.Cc1ccc(S(=O)(=O)[O-])cc1.Cc1ccc(S(=O)(=O)[O-])cc1 | 45 | 0.49 | 17 | 2.01
2 | CCCC[n+]1cccc2cc(NC(=O)/C=C/c3ccc(C(=O)Nc4ccc5c(ccc[n+]5CCCC)c4)cc3)ccc21.Cc1ccc(S(=O)(=O)[O-])cc1.Cc1ccc(S(=O)(=O)[O-])cc1 | 25 | 0.9 | 25 | 1.4
3 | CCC[n+]1cccc(NC(=O)c2ccc(NC(=O)/C=C/c3ccc(C(=O)Nc4ccc(C(=O)Nc5ccc[n+](CCC)c5)cc4)cc3)cc2)c1.Cc1ccc(S(=O)(=O)[O-])cc1.Cc1ccc(S(=O)(=O)[O-])cc1 | 46 | -0.2 | 11.5 | 1.95
4 | CC[n+]1cccc(NC(=O)c2ccc(NC(=O)c3ccc(C(=O)Nc4ccc(C(=O)Nc5ccc[n+](CC)c5)cc4)c(N)c3)cc2)c1.Cc1ccc(S(=O)(=O)[O-])cc1.Cc1ccc(S(=O)(=O)[O-])cc1 | 14 | -0.15 | 2.4 | 2.13
5 | CC[n+]1ccc(Nc2ccc(NC(=O)c3ccc(Nc4cc[n+](CC)c5ccccc45)cc3)cc2N)cc1.[I-].[I-] | 10 | 0.56 | 5.1 | 1.69
6 | CC[n+]1ccc(Nc2ccc(C(=O)Nc3ccc(Nc4cc[n+](CC)c5ccccc45)cc3)cc2)cc1.[Br-].[Br-] | 10 | 0.45 | 0.6 | 2.16
7 | CCC[n+]1cccc(-c2ccc(NC(=O)/C=C/c3ccc(C(=O)Nc4ccc(-c5ccc(-c6ccc(-c7ccc[n+](CCC)c7)cc6)cc5)cc4)cc3)cc2)c1.Cc1ccc(S(=O)(=O)[O-])cc1.Cc1ccc(S(=O)(=O)[O-])cc1 | 20 | 0.02 | 6.4 | 2.2
8 | CCCC[n+]1cccc2cc(NC(=O)c3ccc(C(=O)Nc4ccc5c(ccc[n+]5CCCC)c4)c(N)c3)ccc21.Cc1ccc(S(=O)(=O)[O-])cc1.Cc1ccc(S(=O)(=O)[O-])cc1 | 18 | 0.6 | 9 | 1.72
9 | CC[n+]1ccc(Nc2ccc(C(=O)Nc3ccc(Nc4cc[n+](CC)c5ccc(N)cc45)cc3)cc2)cc1.[I-].[I-] | 9 | 0.19 | 0.7 | 2.23
10 | CCC[n+]1cccc2cc(NC(=O)COc3ccc(C(=O)Nc4ccc5c(ccc[n+]5CCC)c4)cc3)ccc21.Cc1ccc(S(=O)(=O)[O-])cc1.Cc1ccc(S(=O)(=O)[O-])cc1 | 8.3 | 0.15 | 6.3 | 1.59
11 | C[n+]1ccc(Nc2ccc(NC(=O)c3ccc(C(=O)Nc4ccc(C(=O)Nc5ccc[n+](C)c5)cc4)cc3)cc2)cc1.Cc1ccc(S(=O)(=O)[O-])cc1.Cc1ccc(S(=O)(=O)[O-])cc1 | 9 | 0.07 | 0.8 | 2.03
12 | CCCCC[n+]1cccc2cc(NC(=O)c3ccc(C(=O)Nc4ccc5c(ccc[n+]5CCCCC)c4)c(N)c3)ccc21.Cc1ccc(S(=O)(=O)[O-])cc1.Cc1ccc(S(=O)(=O)[O-])cc1 | 16 | 0.85 | 15 | 1.51
13 | CC[n+]1cc(-c2ccc(NC(=O)/C=C/c3ccc(C(=O)Nc4ccc(-c5c[n+](CC)c(N)nc5N)cc4)cc3)cc2)c(N)nc1N.Cc1ccc(S(=O)(=O)[O-])cc1.Cc1ccc(S(=O)(=O)[O-])cc1 | 27 | -0.35 | 5.1 | 2.23
14 | CC[n+]1cccc2cc(NC(=O)c3ccc(NC(=O)c4ccc(C(=O)Nc5ccc6c(ccc[n+]6CC)c5)cc4)cc3)ccc21.Cc1ccc(S(=O)(=O)[O-])cc1.Cc1ccc(S(=O)(=O)[O-])cc1 | 45 | -0.52 | 13 | 2.05
15 | CCC[n+]1cc(-c2ccc(NC(=O)c3ccc(Nc4cc[n+](CCC)c5ccccc45)cc3)cc2)c(N)nc1N.[I-].[I-] | 40 | 0.68 | 15.8 | 1.85
16 | CCC[n+]1cccc2cc(NC(=O)c3ccc(C(=O)Nc4ccc5c(ccc[n+]5CCC)c4)c(N)c3)ccc21.Cc1ccc(S(=O)(=O)[O-])cc1.Cc1ccc(S(=O)(=O)[O-])cc1 | 10 | 0.25 | 3.9 | 1.92
17 | CCCCC[n+]1cccc2cc(NC(=O)c3ccc(C(=O)Nc4ccc5c(ccc[n+]5CCCCC)c4)cc3)ccc21.Cc1ccc(S(=O)(=O)[O-])cc1.Cc1ccc(S(=O)(=O)[O-])cc1 | 57 | 0.92 | 55 | 1.62

Row | SMILES | LD10 [1] [mg/kg] | Rm [2] | D40 [3] [mg/kg] | log(ILSmax) [4]
18 | CCCC[n+]1cccc(NC(=O)c2ccc(NC(=O)c3ccc(C(=O)Nc4ccc5c(ccc[n+]5CCCC)c4)cc3)cc2)c1.Cc1ccc(S(=O)(=O)[O-])cc1.Cc1ccc(S(=O)(=O)[O-])cc1 | 32 | 0.85 | 32 | 1.6
19 | CCC[n+]1cccc(NC(=O)c2ccc(NC(=O)c3ccc(C(=O)Nc4ccc(C(=O)Nc5ccc[n+](CCC)c5)c(OC)c4)cc3)cc2OC)c1.Cc1ccc(S(=O)(=O)[O-])cc1.Cc1ccc(S(=O)(=O)[O-])cc1 | 37 | 0.7 | 22 | 1.79
20 | CCC[n+]1ccc(-c2ccc(NC(=O)c3ccc(Nc4cc[n+](CCC)c5ccccc45)cc3)cc2)cc1.[Br-].[Br-] | 4.8 | 0.8 | 4.8 | 1.6
21 | C[n+]1cccc2cc(NC(=O)c3ccc(-c4ccc(-c5ccc(-c6ccc(C(=O)Nc7ccc8c(ccc[n+]8C)c7)cc6)cc5)cc4)cc3)ccc21.Cc1ccc(S(=O)(=O)[O-])cc1.Cc1ccc(S(=O)(=O)[O-])cc1 | 65 | -0.52 | 10 | 1.9
22 | CC[n+]1cccc2cc(NC(=O)c3ccc(C(=O)Nc4ccc5c(ccc[n+]5CC)c4)nc3)ccc21.Cc1ccc(S(=O)(=O)[O-])cc1.Cc1ccc(S(=O)(=O)[O-])cc1 | 6 | -0.15 | 6 | 1.42
23 | CC[n+]1ccc(Nc2ccc(NC(=O)c3ccc(Nc4cc[n+](CC)c5ccccc45)cc3N)cc2)cc1.[I-].[I-] | 53 | 0.65 | 11.9 | 1.95
24 | COCC[n+]1cccc2cc(NC(=O)c3ccc(C(=O)Nc4ccc5c(ccc[n+]5CCOC)c4)cc3)ccc21.Cc1ccc(S(=O)(=O)[O-])cc1.Cc1ccc(S(=O)(=O)[O-])cc1 | 17 | 0.4 | 11 | 2.04
25 | CC[n+]1cccc2cc(NC(=O)COc3ccc(C(=O)Nc4ccc5c(ccc[n+]5CC)c4)cc3)ccc21.Cc1ccc(S(=O)(=O)[O-])cc1.Cc1ccc(S(=O)(=O)[O-])cc1 | 4 | -0.11 | 4 | 1.4
26 | CCCC[n+]1cccc2cc(NC(=O)c3ccc(C(=O)Nc4ccc5c(ccc[n+]5CCCC)c4)nc3)ccc21.Cc1ccc(S(=O)(=O)[O-])cc1.Cc1ccc(S(=O)(=O)[O-])cc1 | 175 | 0.31 | 120 | 1.87
27 | CC[n+]1cccc(C(=O)Nc2ccc(NC(=O)c3ccc(C(=O)Nc4ccc5c(ccc[n+]5CC)c4)cc3)cc2)c1.Cc1ccc(S(=O)(=O)[O-])cc1.Cc1ccc(S(=O)(=O)[O-])cc1 | 6 | -0.12 | 3.1 | 1.89
28 | CCC[n+]1cccc2cc(NC(=O)c3ccc(C(=O)Nc4ccc5c(ccc[n+]5CCC)c4)nc3)ccc21.Cc1ccc(S(=O)(=O)[O-])cc1.Cc1ccc(S(=O)(=O)[O-])cc1 | 16 | 0.05 | 14 | 1.51
29 | CCC[n+]1ccc(Nc2ccc(NC(=O)c3ccc(Nc4cc[n+](CCC)c5ccc(N)cc45)cc3N)cc2)cc1.[I-].[I-] | 20 | 0.52 | 5.9 | 2.03
30 | CCC[n+]1ccc(Nc2ccc(NC(=O)c3ccc(C(=O)Nc4ccc(Nc5cc[n+](CCC)cc5)cc4)cc3)cc2)cc1.Cc1ccc(S(=O)(=O)[O-])cc1.Cc1ccc(S(=O)(=O)[O-])cc1 | 4.1 | 0.81 | 0.6 | 1.99
31 | Cc1cc(Nc2ccc(C(=O)Nc3ccc(Nc4cc[n+](C)cc4)cc3)c(N)c2)c2cc(N)ccc2[n+]1C.[I-].[I-] | 110 | 0.16 | 8.4 | 2.2
32 | C[n+]1ccc(Nc2ccc(NC(=O)c3ccc(C(=O)Nc4ccc(C(=O)Nc5ccc[n+](C)c5)cc4)cc3)cc2)cc1.[I-].[I-] | 4.5 | -0.12 | 0.5 | 2.12
33 | CC[n+]1ccc(Nc2ccc(NC(=O)c3ccc(Nc4cc[n+](CC)c5ccc(N)cc45)cc3N)cc2)cc1.[I-].[I-] | 17 | 0.37 | 1.4 | 2.33
